# Measured values reported in patent US20200247761A1, “SULFONAMIDE OR AMIDE COMPOUNDS, COMPOSITIONS AND METHODS FOR THE PROPHYLAXIS AND/OR TREATMENT OF AUTOIMMUNE, INFLAMMATION OR INFECTION RELATED DISORDERS” (TAIWANJ PHARMACEUTICALS CO., LTD, priority 2017, published 2020).
# Like-named read-outs stand apart in the source and are kept apart here.
# Key:
# Type in all cases: cell-based
# HEK293 cells = assay: Cell viability (MTT) of the TLR4-expressing HEK293 cells; details: Test Con. 10 μM, percentage of viable LPS-stimulated cells
# Experimental: (§1) RAW264.7 cells (1.6×10^5 cells/well) or HEK 293 cells (2.5-5.0×10^4 cells/well) were seeded in 96-well plate overnight and treated with different compounds for 16-24 hours. Cells' growth were determined by MTT-based colorimetric assays. Viability of the test cells treated with vehicle (0.5% DMSO) only was defined as 100% viable. Survival of cells after treatment with DETDs was calculated using the following formula: viable cell number (%)=OD570 (treated cell culture)/OD570 (vehicle control)×100.
# The cell viability assay was performed by the MTT method. Cells were incubated with 45 μl of 5 mg/ml MTT for 1 hour at 37° C., and 150 μl of DMSO was added at the end of culture to dissolve the crystals. The signals of individual samples in 96-well plates were detected at O.D.570 nm with a Molecular Devices SpectraMax i3 Imaging Cytometer. Cell viability was expressed in percentage of viable LPS-stimulated cells.
# RAW264.7 cells = assay: Cell viability (MTT) of RAW264.7 cells; details: for Cell Viability (%) mean: Test Con. 10 μM, MTT, RAW264.7 cells, percentage of viable LPS-stimulated cells; for toxic activity toward RAW264.7 cells (in words): Table 2, 10 μM
# Experimental: as §1
# The cell viability assay was performed by the MTT method, in which cells were incubated with 45 μl of 5 mg/ml MTT for 1 hour at 37° C., and 150 μl of DMSO was added at the end of culture to dissolve the crystals. The signals of individual samples in 96-well plates were detected at O.D.570 nm with a Molecular Devices SpectraMax i3 Imaging Cytometer. Cell viability was expressed in percentage of viable LPS-stimulated cells.
# [1] = molecular target: T1, Toll-like receptor 4 (TLR4) (Homo sapiens, UniProt O00206); assay: TLR4 activity: NF-κB-inducible SEAP reporter in LPS-stimulated TLR4-expressing HEK293 cells; details: for inhibition at 10 µM: Test Con. 10 μM, LPS 10 ng/ml, 16-24 hours, HEK293 cells expressing TLR4, read-out: TLR-4 inhibition (%) mean; for activity towards TLR-4 (in words): summary of Table 1 (10, 20 or 100 μM)
# T1 construct: expressed in transfected cells; host or cells: HEK293 cells engineered to express TLR4
# T1 sequence (O00206 24-839, species assumed): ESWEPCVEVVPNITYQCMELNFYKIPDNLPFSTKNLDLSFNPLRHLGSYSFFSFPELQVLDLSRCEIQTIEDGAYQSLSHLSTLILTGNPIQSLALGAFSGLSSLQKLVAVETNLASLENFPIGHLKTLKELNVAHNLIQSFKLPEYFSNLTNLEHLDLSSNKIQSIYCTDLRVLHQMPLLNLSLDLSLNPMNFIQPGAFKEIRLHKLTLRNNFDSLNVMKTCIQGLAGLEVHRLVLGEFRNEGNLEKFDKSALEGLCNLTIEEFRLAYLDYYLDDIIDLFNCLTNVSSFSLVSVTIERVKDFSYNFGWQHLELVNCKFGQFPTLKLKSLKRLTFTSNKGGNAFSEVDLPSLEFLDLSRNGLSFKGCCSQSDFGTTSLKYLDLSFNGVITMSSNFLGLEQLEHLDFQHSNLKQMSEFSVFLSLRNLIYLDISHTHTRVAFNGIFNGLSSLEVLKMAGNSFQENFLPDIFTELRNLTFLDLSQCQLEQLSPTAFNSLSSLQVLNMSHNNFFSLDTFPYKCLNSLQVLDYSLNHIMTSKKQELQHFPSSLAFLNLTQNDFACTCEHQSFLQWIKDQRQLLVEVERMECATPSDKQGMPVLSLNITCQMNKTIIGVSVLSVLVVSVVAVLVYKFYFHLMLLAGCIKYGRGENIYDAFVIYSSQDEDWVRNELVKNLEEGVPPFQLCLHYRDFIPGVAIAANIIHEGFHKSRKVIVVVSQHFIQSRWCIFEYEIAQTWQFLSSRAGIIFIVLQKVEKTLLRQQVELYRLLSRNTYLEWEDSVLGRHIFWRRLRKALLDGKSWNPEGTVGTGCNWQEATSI
# T1 sequence (Q9Y6Y9 17-160 partner limits assumed, species assumed): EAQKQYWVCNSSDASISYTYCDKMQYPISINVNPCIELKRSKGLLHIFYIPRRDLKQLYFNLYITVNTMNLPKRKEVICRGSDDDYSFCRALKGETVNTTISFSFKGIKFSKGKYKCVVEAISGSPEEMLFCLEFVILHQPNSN
# Experimental: Stimulation of the Toll-like receptor 4 (TLR4) was determined by assessing activation of the transcription factor NF-κB in HEK293 cells that were engineered to express TLR4. Assessment of TLR4 stimulation was based on the use of an NE-κB-inducible secreted alkaline phosphatase (SEAP) reporter system in which the SEAP reporter was under the control of a promoter inducible by NF-κB. Thus, the degree of activation of TLR4 can be indirectly quantified spectrophotometrically by measuring the amount of the SEAP reporter that is produced.
# The TLR4-expressing cells were plated in HEK-Blue Detection (Invivogen, San Diego, Calif.) medium in a 96-well plate (25,000-50,000 cells/well). The cells were stimulated with lipopolysaccharides (LPS) alone or in combination with the compound of Example 1. Cell culture without LPS and the compound of Example 1 was defined as baseline control. To test whether the compound of Example 1 could block that activation of the TLR4, the cells were treated with the designated compound (10, 20 or 100 μM) and LPS (final conc. 10 ng/ml/well). After an incubation period (16-24 hours) at 37° C. in a CO2 incubator, the signals of individual samples in 96-well plates were detected at O.D.650 nm with a Molecular Devices SpectraMax i3 Imaging Cytometer. The TLR4 activity was expressed in percentage of LPS alone-stimulated cells minus baseline control.
# [2] = test system: mTNF-α secretion from LPS-stimulated RAW264.7 monocytes; assay: LPS induced mTNF-α release from RAW264.7 cells (ELISA); details: Mus musculus
# Experimental: To confirm whether the inhibitory effect of the selected compounds of example 2.1 (i.e., Compounds 12, 15, 19, 20, 22, 24, 28, 30, 32, 34, 36, 38, 40, 42, 44, 45, 49, 50, 52 and 70) translates to anti-inflammation, they were further tested to see if any of them may suppress mTNF-α secretion from lipopolysaccharide (LPS)-stimulated RAW264.7 monocytes.
# To this purpose, RAW264.7 cells were seeded at 1.6×10^5 cells/well into 96-well culture plates. Test compounds (i.e., Compounds 12, 15, 19, 20, 22, 24, 28, 30, 32, 34, 36, 38, 40, 42, 44, 45, 49, 50, 52 and 70, respectively at 10 μM) were added into the culture plates in triplicate and co-cultured at 37° C. in 5% CO2 for 30 minutes. LPS (final conc. 10 ng/ml/well) was then added into the culture plates and the cells were incubated for another 4 hours. At the end of culture, the cultured media were harvested for mTNF-α quantification by ELISA with commercial assay kits (R&D Systems, Minneapolis, Minn.) following the manufacturer's protocol. Signals of the individual samples in 96-well plates were detected at O.D.450 nm/570 nm with a Molecular Devices SpectraMax i3 Imaging Cytometer. The mTNF-α activity was expressed in percentage of viable LPS-stimulated cells without test compound treatment.
# [3] = RAW264.7, Table 2, 10 μM, read-out: inhibition of LPS induced mTNF-α release from RAW264.7 cells
# [4] = Test Con. 10 μM, LPS 10 ng/ml, 4 hours, RAW264.7 cells, read-out: mTNF-α inhibition (%) mean
Structure (SMILES),Cell Viability (%) mean (HEK293 cells),Cell Viability (%) mean (RAW264.7 cells),inhibition at 10 µM [1],activity towards TLR-4 (in words) [1],"inhibition at 10 µM [2, 3]","inhibition at 10 µM [2, 4]",toxic activity toward RAW264.7 cells (in words) (RAW264.7 cells)
C=CC(=O)c1ccccc1S(=O)(=O)N(C)c1ccccc1 [Compound 70],79.7%,69.6%,100%,strong antagonist,85 to 100%,100%,
C=CC(=O)Nc1ccccc1S(=O)(=O)Nc1ccc(F)cc1Cl [Compound 44],81.4%,96.1%,100%,strong antagonist,85 to 100%,94.1%,negligible to no toxic activity
C=CC(=O)N1CCCc2cccc(S(=O)(=O)Nc3ccc(F)cc3F)c21 [Compound 15],84.1%,52.4%,100%,strong antagonist,85 to 100%,94.7%,
C=CC(=O)N(c1ccc(F)cc1Cl)S(=O)(=O)N1CCOC1=O [Compound 38],61.6%,48.0%,100%,strong antagonist,85 to 100%,97.1%,
C=CC(=O)N(c1ccc(F)cc1Cl)S(=O)(=O)c1ccc(F)cc1Cl [Compound 30],94.0%,99.7%,94.8%,strong antagonist,85 to 100%,82.9%,negligible to no toxic activity
C=CC(=O)N(C1CC1)S(=O)(=O)c1ccc(F)cc1Cl [Compound 40],85.5%,93.5%,100%,strong antagonist,85 to 100%,99.7%,negligible to no toxic activity
C=CC(=O)N(c1ccc(F)cc1Cl)S(=O)(=O)N1CCCCC1C(=O)OC (centres unmarked) [Compound 52],92.2%,88.1%,100%,strong antagonist,85 to 100%,97.2%,negligible to no toxic activity
C=CC(=O)N(c1ccc(F)cc1Cl)S(=O)(=O)N1CCCC1 [Compound 50],85.1%,97.6%,76%,moderate inhibitory activity,85 to 100%,86.1%,negligible to no toxic activity
C=CC(=O)N(c1ccc(F)cc1Cl)S(=O)(=O)c1ccccc1S(C)(=O)=O [Compound 32],84.5%,48.3%,100%,strong antagonist,85 to 100%,97.5%,
